In article PMC12121777 (PLOS One, 2025):
≈ marks a conversion by molar mass, not a printed value. Read-outs that look alike come from different tables or passages of the source.

Assays:
[1] = test system: Mycobacterium kansasii 6509/96; experiment: MIC, micro method in Šula's semisynthetic medium, M. kansasii clinical isolate; type: cell-based; details: read-out: MIC M. kansasii 6509/96
[2] = test system: Mycobacterium avium 330/88; experiment: MIC, micro method in Šula's semisynthetic medium, M. avium; type: cell-based
Mtb 331/88 (i.e., H37Rv) = experiment: MIC, micro method in Šula's semisynthetic medium, drug-susceptible Mtb; type: cell-based, Mycobacterium tuberculosis; details: Mycobacterium tuberculosis, H37RV
HepG2 cells = experiment: Cytotoxicity on HepG2 cell line (CellTiter 96); type: cell-based, human; details: Homo sapiens, HepG2, 24 h, read-out: IC50 HepG2
[3] = 330/88, 336 h, read-out: MIC M. avium 330/88
[4] = 330/88, 504 h, read-out: MIC M. avium 330/88

Row | SMILES | MIC ([1]; 6509/96, 168 h) [µM] | MIC ([1]; 6509/96, 336 h) [µM] | MIC ([1]; 6509/96, 504 h) [µM] | MIC [2, 3] [µM] | MIC [2, 4] [µM] | MIC (Mtb 331/88 (i.e., H37Rv); 336 h, 14 days) [µM] | MIC (Mtb 331/88 (i.e., H37Rv); 504 h, 21 days) [µM] | IC50 (HepG2 cells) [µM] | MIC ([2]; 330/88, read-out: MIC M. avium) [µM]
1 | CNC(=O)NNC(=O)c1cc([N+](=O)[O-])cc([N+](=O)[O-])c1 [Compound 4a, 2-(3,5-Dinitrobenzoyl)-N-methylhydrazine-1-carboxamide] | 250 (≈ 70.8 µg/mL) | 500 (≈ 142 µg/mL) | 500 (≈ 142 µg/mL) | 1000 (≈ 283 µg/mL) | 1000 (≈ 283 µg/mL) | > 32 | > 32 | – | –
2 | CCNC(=O)NNC(=O)c1cc([N+](=O)[O-])cc([N+](=O)[O-])c1 [Compound 4b, 2-(3,5-Dinitrobenzoyl)-N-ethylhydrazine-1-carboxamide] | 64 (≈ 19 µg/mL) | 125 (≈ 37.2 µg/mL) | 125 (≈ 37.2 µg/mL) | 1000 (≈ 297 µg/mL) | 1000 (≈ 297 µg/mL) | 32 (≈ 9.51 µg/mL) | > 32 | – | –
3 | CCCNC(=O)NNC(=O)c1cc([N+](=O)[O-])cc([N+](=O)[O-])c1 [Compound 4c, 2-(3,5-Dinitrobenzoyl)-N-propylhydrazine-1-carboxamide] | 8 (≈ 2.49 µg/mL) | 16 (≈ 4.98 µg/mL) | 16 (≈ 4.98 µg/mL) | 1000 (≈ 311 µg/mL) | 1000 (≈ 311 µg/mL) | 16 (≈ 4.98 µg/mL) | 16 (≈ 4.98 µg/mL) | – | –
4 | CCCCNC(=O)NNC(=O)c1cc([N+](=O)[O-])cc([N+](=O)[O-])c1 [Compound 4d, N-Butyl-2-(3,5-dinitrobenzoyl)hydrazine-1-carboxamide] | 2 (≈ 0.651 µg/mL) | 4 (≈ 1.3 µg/mL) | 4 (≈ 1.3 µg/mL) | 1000 (≈ 325 µg/mL) | 1000 (≈ 325 µg/mL) | 2 (≈ 0.651 µg/mL) | 2 (≈ 0.651 µg/mL) | 198 | –
5 | CCCCCNC(=O)NNC(=O)c1cc([N+](=O)[O-])cc([N+](=O)[O-])c1 [Compound 4e, 2-(3,5-Dinitrobenzoyl)-N-pentylhydrazine-1-carboxamide] | 1 (≈ 0.339 µg/mL) | 1 (≈ 0.339 µg/mL) | 2 (≈ 0.679 µg/mL) | 1000 (≈ 339 µg/mL) | 1000 (≈ 339 µg/mL) | 1 (≈ 0.339 µg/mL) | 1 (≈ 0.339 µg/mL) | 134 | –
6 | CCCCCCNC(=O)NNC(=O)c1cc([N+](=O)[O-])cc([N+](=O)[O-])c1 [Compound 4f, 2-(3,5-Dinitrobenzoyl)-N-hexylhydrazine-1-carboxamide] | 1 (≈ 0.353 µg/mL) | 1 (≈ 0.353 µg/mL) | 1 (≈ 0.353 µg/mL) | 250 (≈ 88.3 µg/mL) | 250 (≈ 88.3 µg/mL) | 1 (≈ 0.353 µg/mL) | 1 (≈ 0.353 µg/mL) | 119 | 125 to 250 (≈ 44.2 to 88.3 µg/mL)
7 | CCCCCCCNC(=O)NNC(=O)c1cc([N+](=O)[O-])cc([N+](=O)[O-])c1 [Compound 4g, 2-(3,5-Dinitrobenzoyl)-N-heptylhydrazine-1-carboxamide] | 1 (≈ 0.367 µg/mL) | 1 (≈ 0.367 µg/mL) | 1 (≈ 0.367 µg/mL) | 125 (≈ 45.9 µg/mL) | 250 (≈ 91.8 µg/mL) | 0.5 (≈ 0.184 µg/mL) | 0.5 (≈ 0.184 µg/mL) | 117 | 125 to 250 (≈ 45.9 to 91.8 µg/mL)
8 | CCCCCCCCCCCCCCCCNC(=O)NNC(=O)c1cc([N+](=O)[O-])cc([N+](=O)[O-])c1 [Compound 4p, 2-(3,5-Dinitrobenzoyl)-N-hexadecylhydrazine-1-carboxamide] | 8 (≈ 3.95 µg/mL) | 16 (≈ 7.9 µg/mL) | 16 (≈ 7.9 µg/mL) | > 1000 | > 1000 | 8 (≈ 3.95 µg/mL) | 16 (≈ 7.9 µg/mL) | – | –
9 | CCCCCCCCCCCCCCCCCNC(=O)NNC(=O)c1cc([N+](=O)[O-])cc([N+](=O)[O-])c1 [Compound 4q, 2-(3,5-Dinitrobenzoyl)-N-heptadecylhydrazine-1-carboxamide] | 8 (≈ 4.06 µg/mL) | 16 (≈ 8.12 µg/mL) | 16 (≈ 8.12 µg/mL) | > 500 | > 500 | 8 (≈ 4.06 µg/mL) | 16 (≈ 8.12 µg/mL) | – | –
10 | CCCCCCCCCCCCCCCCCCNC(=O)NNC(=O)c1cc([N+](=O)[O-])cc([N+](=O)[O-])c1 [Compound 4r, 2-(3,5-Dinitrobenzoyl)-N-octadecylhydrazine-1-carboxamide] | 8 (≈ 4.17 µg/mL) | 16 (≈ 8.35 µg/mL) | 16 (≈ 8.35 µg/mL) | > 1000 | > 1000 | 8 (≈ 4.17 µg/mL) | 16 (≈ 8.35 µg/mL) | – | –
11 | CNc1nnc(-c2cc([N+](=O)[O-])cc([N+](=O)[O-])c2)o1 [Compound 5a, 5-(3,5-Dinitrophenyl)-N-methyl-1,3,4-oxadiazol-2-amine] | 16 (≈ 4.24 µg/mL) | 32 (≈ 8.49 µg/mL) | 32 (≈ 8.49 µg/mL) | 500 (≈ 133 µg/mL) | 500 (≈ 133 µg/mL) | 8 (≈ 2.12 µg/mL) | 16 (≈ 4.24 µg/mL) | – | –
12 | CCNc1nnc(-c2cc([N+](=O)[O-])cc([N+](=O)[O-])c2)o1 [Compound 5b, 5-(3,5-Dinitrophenyl)-N-ethyl-1,3,4-oxadiazol-2-amine] | 16 (≈ 4.47 µg/mL) | 32 (≈ 8.93 µg/mL) | 32 (≈ 8.93 µg/mL) | > 1000 | > 1000 | 8 (≈ 2.23 µg/mL) | 16 (≈ 4.47 µg/mL) | – | > 1000
13 | CCCNc1nnc(-c2cc([N+](=O)[O-])cc([N+](=O)[O-])c2)o1 [Compound 5c, 5-(3,5-Dinitrophenyl)-N-propyl-1,3,4-oxadiazol-2-amine] | 4 (≈ 1.17 µg/mL) | 8 (≈ 2.35 µg/mL) | 16 (≈ 4.69 µg/mL) | > 500 | > 500 | 4 (≈ 1.17 µg/mL) | 4 (≈ 1.17 µg/mL) | – | –
14 | CCCCCCCCCCCCCCCCNc1nnc(-c2cc([N+](=O)[O-])cc([N+](=O)[O-])c2)o1 [Compound 5p, 5-(3,5-Dinitrophenyl)-N-hexadecyl-1,3,4-oxadiazol-2-amine] | 2 (≈ 0.951 µg/mL) | 4 (≈ 1.9 µg/mL) | 8 (≈ 3.8 µg/mL) | 8 (≈ 3.8 µg/mL) | 16 (≈ 7.61 µg/mL) | 8 (≈ 3.8 µg/mL) | 8 (≈ 3.8 µg/mL) | – | –
15 | CCCCCCCCCCCCCCCCCNc1nnc(-c2cc([N+](=O)[O-])cc([N+](=O)[O-])c2)o1 [Compound 5q, 5-(3,5-Dinitrophenyl)-N-heptadecyl-1,3,4-oxadiazol-2-amine] | 8 (≈ 3.92 µg/mL) | 16 (≈ 7.83 µg/mL) | 32 (≈ 15.7 µg/mL) | 32 (≈ 15.7 µg/mL) | 64 (≈ 31.3 µg/mL) | 32 (≈ 15.7 µg/mL) | > 32 | – | –
16 | CCCCCCCCCCCCCCCCCCNc1nnc(-c2cc([N+](=O)[O-])cc([N+](=O)[O-])c2)o1 [Compound 5r, 5-(3,5-Dinitrophenyl)-N-octadecyl-1,3,4-oxadiazol-2-amine] | 64 (≈ 32.2 µg/mL) | 64 (≈ 32.2 µg/mL) | 64 (≈ 32.2 µg/mL) | > 1000 | > 1000 | > 32 | > 32 | – | > 1000
17 | O=[N+]([O-])c1cc(-c2nnc(NCc3ccccc3)o2)cc([N+](=O)[O-])c1 [Compound 7a, N-Benzyl-5-(3,5-dinitrophenyl)-1,3,4-oxadiazol-2-amine] | 0.5 (≈ 0.171 µg/mL) | 1 (≈ 0.341 µg/mL) | 1 (≈ 0.341 µg/mL) | 4 (≈ 1.37 µg/mL) | 4 (≈ 1.37 µg/mL) | 0.125 (≈ 0.0427 µg/mL) | 0.25 (≈ 0.0853 µg/mL) | – | –
18 | COc1ccc(CNc2nnc(-c3cc([N+](=O)[O-])cc([N+](=O)[O-])c3)o2)cc1 [Compound 7b, 5-(3,5-Dinitrophenyl)-N-(4-methoxybenzyl)-1,3,4-oxadiazol-2-amine] | ≤ 0.03 | ≤ 0.03 | ≤ 0.03 | 2 (≈ 0.743 µg/mL) | 2 (≈ 0.743 µg/mL) | ≤ 0.03 | ≤ 0.03 | – | –
19 | O=[N+]([O-])c1cc(-c2nnc(NCc3ccc(Cl)cc3)o2)cc([N+](=O)[O-])c1 [Compound 7c, N-(4-Chlorobenzyl)-5-(3,5-dinitrophenyl)-1,3,4-oxadiazol-2-amine] | 0.125 (≈ 0.047 µg/mL) | 0.125 (≈ 0.047 µg/mL) | 0.25 (≈ 0.0939 µg/mL) | 1 (≈ 0.376 µg/mL) | 2 (≈ 0.751 µg/mL) | 0.125 (≈ 0.047 µg/mL) | 0.125 (≈ 0.047 µg/mL) | – | –
20 | O=[N+]([O-])c1cc(-c2nnc(NCc3ccc(Cl)cc3Cl)o2)cc([N+](=O)[O-])c1 [Compound 7d, N-(2,4-Dichlorobenzyl)-5-(3,5-dinitrophenyl)-1,3,4-oxadiazol-2-amine] | 0.06 (≈ 0.0246 µg/mL) | 0.125 (≈ 0.0513 µg/mL) | 0.125 (≈ 0.0513 µg/mL) | 1 (≈ 0.41 µg/mL) | 1 (≈ 0.41 µg/mL) | 0.06 (≈ 0.0246 µg/mL) | 0.125 (≈ 0.0513 µg/mL) | – | –
21 | O=[N+]([O-])c1cc(-c2nnc(NCc3ccc(Br)cc3)o2)cc([N+](=O)[O-])c1 [Compound 7e, N-(4-Bromobenzyl)-5-(3,5-dinitrophenyl)-1,3,4-oxadiazol-2-amine] | 0.25 (≈ 0.105 µg/mL) | 0.5 (≈ 0.21 µg/mL) | 0.5 (≈ 0.21 µg/mL) | 2 (≈ 0.84 µg/mL) | 4 (≈ 1.68 µg/mL) | 0.25 (≈ 0.105 µg/mL) | 0.25 (≈ 0.105 µg/mL) | – | –
22 | COc1ccc(CNc2nnc(-c3cc([N+](=O)[O-])cc([N+](=O)[O-])c3)s2)cc1 [Compound 8b, 5-(3,5-Dinitrophenyl)-N-(4-methoxybenzyl)-1,3,4-thiadiazol-2-amine] | 0.06 (≈ 0.0232 µg/mL) | 0.06 (≈ 0.0232 µg/mL) | 0.125 (≈ 0.0484 µg/mL) | 4 (≈ 1.55 µg/mL) | 4 (≈ 1.55 µg/mL) | ≤ 0.03 | ≤ 0.03 | – | –
23 | O=[N+]([O-])c1cc(-c2nnc(NCc3ccc(Cl)cc3)s2)cc([N+](=O)[O-])c1 [Compound 8c, N-(4-Chlorobenzyl)-5-(3,5-dinitrophenyl)-1,3,4-thiadiazol-2-amine] | 0.06 (≈ 0.0235 µg/mL) | 0.125 (≈ 0.049 µg/mL) | 0.125 (≈ 0.049 µg/mL) | 2 (≈ 0.784 µg/mL) | 2 (≈ 0.784 µg/mL) | ≤ 0.03 | ≤ 0.03 | – | –
24 | O=[N+]([O-])c1cc(-c2nnc(NCc3ccc(Cl)cc3Cl)s2)cc([N+](=O)[O-])c1 [Compound 8d, N-(2,4-Dichlorobenzyl)-5-(3,5-dinitrophenyl)-1,3,4-thiadiazol-2-amine] | 0.25 (≈ 0.107 µg/mL) | 0.5 (≈ 0.213 µg/mL) | 0.5 (≈ 0.213 µg/mL) | 2 (≈ 0.852 µg/mL) | 2 (≈ 0.852 µg/mL) | 0.125 (≈ 0.0533 µg/mL) | 0.125 (≈ 0.0533 µg/mL) | – | –
25 | CCCCCCCCCCCCSc1nnc(-c2cc([N+](=O)[O-])cc([N+](=O)[O-])c2)o1 [Compound 10, 2-(3,5-Dinitrophenyl)-5-(dodecylthio)-1,3,4-oxadiazole] | 2 (≈ 0.873 µg/mL) | 4 (≈ 1.75 µg/mL) | 8 (≈ 3.49 µg/mL) | 500 (≈ 218 µg/mL) | 500 (≈ 218 µg/mL) | 8 (≈ 3.49 µg/mL) | 8 (≈ 3.49 µg/mL) | – | –
